# Assay results as given in publication PMC4860837, “Structural basis for Sfm1 functioning as a protein arginine methyltransferase” (Cell Discovery, 2015).
# Molecular target: T1, Sfm1 (Saccharomyces cerevisiae, UniProt Q12314)
# T1 construct: full length, residues 1-213; C-terminal His6 tag (crystal) or N-terminal GST tag (activity assay), E. coli BL21(DE3); monomer
# Assay: X-ray crystallography, […] Å
# Format: binding
# Settings: co-crystallised with SAH ([…] molar ratio), pH […] °C; cofactor pocket of trefoil knot
compound,measurement,value
Nc1ncnc2c1ncn2[C@@H]1O[C@H](CSCC[C@H](N)C(=O)O)[C@@H](O)[C@H]1O [SAH],"X-ray crystallography, 2.5 Å","In the SAH-bound Sfm1 structure, SAH is clearly defined in the electron density map"
